Data reported in US6531148B1, “Therapeutic agents” (Takara Shuzo Co., Ltd., priority 1998, dated 2003).
Read-outs that look alike come from different tables or passages of the source.

Legend:
[1] = test system: Ehrlich's carcinoma cells; test: Carcinostatic activity test, Ehrlich's carcinoma; format: in vivo, mice; settings: for carcinostatic activity: mouse, in vivo; for 30-day survival number: 6 mice per group, control 0; for Average days of survival: 30 days observation, control 14.3
Description: (2) Ehrlich's carcinoma cells were administered to 18 female ddY mice (5 weeks old, weighing about 25 g) intraperitoneally (1.2×10^6 cells/mouse). Observation was continued for 30 days. The average days of survival, the prolongation rate and the 30-day survival number were then calculated. Mice were divided into 3 group each consisting of 6 mice. One was a control group, and other two groups received DGE at 2 mg/kg and 20 mg/kg, respectively. DGE was intraperitoneally administered for 4 days from the day after the administration of cancer.

[2] = test system: 70-kDa heat shock protein; test: Heat shock protein induction test; format: cell-based; set-up: key to Induction of heat shock protein: − means that no induction was observed; + represents the induction level. Increased number of + means increased induction; + +: + represents the induction level. Increased number of + means increased induction; + + +: + represents the induction level. Increased number of + means increased induction; + + + +: + represents the induction level. Increased number of + means increased induction; settings: HL-60 cells; for activity of inducing heat shock protein: 70-kDa heat shock protein; for Induction of heat shock protein: 6 hours
Description: 5 ml of RPMI 1640 medium containing 10% fetal bovine serum and HL-60 cells at a concentration of 2×10^5 cells/ml was placed in each well of a 6-well plate. The plate was incubated at 37° C. for 24 hours in the presence of 5% CO2. DGE at a final concentration of 0, 6.25, 12.5, 25, 50 or 100 μM was then added thereto. The incubation was continued for additional 6 hours.
After cultivation, the cell number was counted.
The cells were harvested by centrifugation, washed with PBS to prepare DGE-treated cells. Cells that were cultured in the same manner after heated at 45° C. for 10 minutes were also prepared.
These treated cells were used for SDS-PAGE according to the method as described in Molecular Cloning [Cold Spring Harbor Laboratory Press (1989)]. The treated cells were suspended in SDS-PAGE Sample buffer at a concentration of 2.5×10^6 cells/ml. The cell suspensions were treated at 100° C. for 10 minutes. 5 μl each of the cell suspensions was applied to two SDS-PAGE gels (5% stacking gel, 10% separation gel) and electrophoresed. One of the gels was subjected to Coomassie staining. The other gel was blotted onto a polyvinylidene difluoride transfer membrane [Immobilon™, Millipore, Cat. # IPVH000-10]. The membrane was blocked at 4° C. overnight using Block Ace (Dainippon Pharmaceutical, Cat. # UK-B25).
The blocked membrane was reacted with a monoclonal antibody HSP72/73(Ab-1) (Oncogene Research Products, Cat. # HSP01), which specifically reacts with heat-inducible 70-kDa heat shock protein. The membrane was washed with TBS containing 0.05% Tween 20 followed by TBS. The membrane was then reacted with a peroxidase-conjugated secondary antibody HRT-rabbit anti-mouse IgG (H+L) (Zymed Laboratories, Inc., Cat. # 61-6520), and then washed as described above. The membrane reacted with the primary and secondary antibodies was reacted with a chemiluminol reagent, Renaissance™ (Dupont NEN, Cat. # NEL-100). The membrane was then exposed to an X-ray film to confirm the induction of 70-kDa heat shock protein.

[3] = test system: Mouse melanoma cell B16BL6; test: Melanogenesis inhibition test; format: cell-based; settings: B16BL6, absorbance at 400 nm
Description: Mouse melanoma cell B16BL6 suspended in RPMI 1640 medium containing 10% fetal bovine serum was dispensed into a 6-well plate at 5×10^4 cells/well/2 ml medium and the plate was incubated at 37° C. On the 2nd day, 100 μl of a DGE solution (2 mg/ml to 0.2 mg/ml) was added thereto. On the 7th day, the medium was exchanged and, at the same time, 100 μl of the DGE solution (2 mg/ml to 0.2 mg/ml) was added thereto. On the 8th day, the cells were harvested. After DNA, RNA and protein were digested, the absorbance at 400 nm was measured to determine an activity of inhibiting melanogenesis.
Briefly, after removing the medium by aspiration, 0.3 ml of 0.25% trypsin dissolved in 20 mM EDTA solution was added to each well and the plate was incubated at 37° C. for 10 minutes. 2 ml of fresh medium was then added to the well and the cells were suspended. The suspension was transferred to a tube. After the medium was removed by centrifugation, the cells were suspended in 2 ml of PBS and centrifuged again. After the supernatant was removed, 30 μl of 50 mM sodium acetate buffer (pH 5.0) containing 5 mM manganese chloride and 1 μl of 70,000 U/ml DNase I (Takara Shuzo) were added to the cells. The mixture was mixed thoroughly and then incubated at 37° C. for 2 hours to digest DNA. 1 μl of 10 mg/ml ribonuclease A (Sigma) was then added to the mixture and the resultant mixture was incubated at 50° C. for 1 hour to digest RNA. Finally, 100 mM Tris-hydrochloride buffer (pH 7.8) containing 100 μg/ml proteinase K (Sigma), 0.1% Triton X and 10 mM EDTA was added thereto to make the total volume to 200 μl for 2×10^6 cells. After the mixture was incubated at 37° C. for 16 hours, the absorbance at 400 nm was measured.

DSEK cells = test: Antirheumatic activity test (DSEK cell growth, WST-1); format: cell-based, human; settings: for antirheumatic activity (growth inhibition of rheumatoid cells) / IC50: DSEK cells; for IC50: Homo sapiens, read-out: concentration that results in the inhibition of the growth of half-cells (IC50)
Description: DSEK cell is a fibroblast cell line established from a synovial membrane of a human patient with chronic rheumatism and is held at Department of Second Internal Medicine, Integrated Medical Center, Saitama Collage of Medicine as an in vitro rheumatoid model. DSEK cells were cultured in Iscov-MEM medium (IMDM: Gibco-BRL) containing 10% FBS (Bio Whittaker) at 37° C. in the presence of 5% CO2 to confluence. The cells were suspended in the same medium at a concentration of 3×10^4 cells/ml using a trypsin-EDTA solution (Bio Whittaker). 200 μl of the suspension was dispensed into each well of a 96-well microtiter plate (Falcon). After culturing for 5 to 7 days at which time the cells grew to 80% confluence, the medium was changed to 200 μl of the above-mentioned medium containing DGE at a 25, 50, 75, 100, 200 or 400 μM.
After incubating for 24 or 72 hours, 10 μl of Premix WST-1 (Takara Shuzo, MK400) was added to the well. The mixture was reacted at 37° C. for 3.5 hours. The degree of cell growth was expressed by a value obtained by subtracting the absorbance at 650 nm (A650) from the absorbance at 450 nm (A450).

[4] = DGE at 2 mg/kg intraperitoneally for 4 days
[5] = DGE at 20 mg/kg intraperitoneally for 4 days

5-L-glutathion-S-yl-2-hydroxy-3,7-dioxabicyclo[2.2.2]octan-1-ol [DGE-GSH]
carcinostatic activity [1]: also exhibited similar activities | activity of inducing heat shock protein [2]: also exhibited similar activities of inducing heat shock protein | activity of inhibiting melanogenesis [3]: also exhibited similar activities | antirheumatic activity (growth inhibition of rheumatoid cells) (DSEK cells): also exhibited similar activities

O=C1C=CC(CO)OC1O [DGE, L-glycero-1,5-epoxy-1αβ,6-dihydroxy-cis-hex-3-en-2-one]
30-day survival number [1, 4]: 1 | Average days of survival [1, 4]: 23.7 days | 30-day survival number [1, 5]: 3 | Average days of survival [1, 5]: 28.0 days | carcinostatic activity [1]: exhibited a carcinostatic activity | activity of inducing heat shock protein [2]: the induction of 70-kDa heat shock protein by DGE was observed | Induction of heat shock protein ([2]; 6.25 μM DGE): + | Induction of heat shock protein ([2]; 12.5 μM DGE): + | Induction of heat shock protein ([2]; 25.0 μM DGE): + + | Induction of heat shock protein ([2]; 50.0 μM DGE): + + + | Induction of heat shock protein ([2]; 100 μM DGE): + + + + | activity of inhibiting melanogenesis [3]: an activity of inhibiting melanogenesis was observed | Degree of cell growth (A450-650) (DSEK cells; DGE 25 μM, culture period 24 hours, 0 μM 3.98): 3.86 | Degree of cell growth (A450-650) (DSEK cells; DGE 25 μM, culture period 72 hours, 0 μM 3.94): 3.33 | Degree of cell growth (A450-650) (DSEK cells; DGE 50 μM, culture period 24 hours, 0 μM 3.98): 3.24 | Degree of cell growth (A450-650) (DSEK cells; DGE 50 μM, culture period 72 hours, 0 μM 3.94): 3.25 | Degree of cell growth (A450-650) (DSEK cells; DGE 100 μM, culture period 24 hours, 0 μM 3.98): 2.88 | Degree of cell growth (A450-650) (DSEK cells; DGE 100 μM, culture period 72 hours, 0 μM 3.94): 2.05 | Degree of cell growth (A450-650) (DSEK cells; DGE 200 μM, culture period 24 hours, 0 μM 3.98): 1.26 | Degree of cell growth (A450-650) (DSEK cells; DGE 200 μM, culture period 72 hours, 0 μM 3.94): 0.48 | Degree of cell growth (A450-650) (DSEK cells; DGE 400 μM, culture period 24 hours, 0 μM 3.98): 0.71 | Degree of cell growth (A450-650) (DSEK cells; DGE 400 μM, culture period 72 hours, 0 μM 3.94): 0.35 | antirheumatic activity (growth inhibition of rheumatoid cells) (DSEK cells): the growth of the rheumatoid cells was strongly inhibited | IC50 (DSEK cells; at 24 hours): 207 µM | IC50 (DSEK cells; at 72 hours): 112 µM

O=C1C=CC(CO)OC1O [κ-DGE, D-glycero-1,5-epoxy-1αβ,6-dihydroxy-cis-hex-3-en-2-one]
carcinostatic activity [1]: also exhibited similar activities | activity of inducing heat shock protein [2]: also exhibited similar activities of inducing heat shock protein | activity of inhibiting melanogenesis [3]: also exhibited similar activities | antirheumatic activity (growth inhibition of rheumatoid cells) (DSEK cells): also exhibited similar activities
